Read-outs that look alike come from different tables or passages of the source. Values belong to the compound of their own block, whether it stands above or below them.
Columns and labels:
AGS cell = test: Anti-proliferative 2D CTG assay, AGS cells; assay type: cell-based; conditions: Homo sapiens, 72 h
Method: When the cell confluence was about 80%, the cells were isolated with 0.25% trypsin. Isolated cells were resuspended in 5 mL fresh cell culture medium and centrifuged for cell collection. Meanwhile, the number of cells was also calculated. The cells were then suspended in culture medium of medium concentration. The cells were placed into a 96-well plate with 1000 cells/well for AGS and 1000 cells/well for GP2D. The 96-well plate was placed in an incubator at 37° C. and incubated overnight.
1.2 Day 1 Compound Treatment From the 10 mM stock solution, with a ratio of 1:5, 10-point serial dilutions were performed. The 10× medium containing the compound was transferred into corresponding wells of the 96 wells. The final maximum compound concentration was […] and the final DMSO concentration was 0.1%. The 96-well plate was placed in a 37° C. incubator, the AGS cells were incubated for 3 days, and the GP2D cells were incubated for 4 days.
50 μL/well of detection reagent (CTG) was added to the AGS cells, and the signal was read in an Envision machine.
The percent inhibition (%) at each compound concentration was calculated from the signal in the HPE and ZPE control wells and the fluorescence signal in the individual compound wells included in each assay plate. […] The compound concentration required for inhibitory concentration at 50% (IC50) was determined using a four-parameter logarithmic dose-response equation by testing the concentration of the compound and the inhibition percentage value. The endpoint value (IC50) of the reference compound was assessed in each experiment as a quality control measure. If the endpoint value is within three times the expected value, the experiment may be considered acceptable.

KRAS^G12D/cRAF = KRAS^G12D/cRAF (Homo sapiens, UniProt P01116, G12D); test: KRAS G12D/cRAF binding test (Alphalisa); conditions: His-tagged KRAS G12D + GMPPNP, GST-tagged cRAF
Sequence of KRAS^G12D/cRAF (P01116 1-188 isoform P01116-2 G12D): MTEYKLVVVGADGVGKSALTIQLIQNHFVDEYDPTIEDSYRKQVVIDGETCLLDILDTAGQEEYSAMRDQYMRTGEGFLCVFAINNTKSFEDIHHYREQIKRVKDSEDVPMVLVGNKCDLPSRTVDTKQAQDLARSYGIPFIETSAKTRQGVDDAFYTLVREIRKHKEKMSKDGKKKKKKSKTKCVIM
Method: The compound was dissolved in 100% DMSO at a starting concentration of 5 mM and diluted in DMSO with a 3-fold serial dilution method for a total of 8 concentration points. 1 μL of the compound or DMSO at each concentration point was added into 99 μL of the experimental buffer to obtain 10× stock solution.
• 1) 4 μL of the working mixture solution of His-tagged KRAS^G12D and GMPPNP was added to the 384-well plate. • 2) The 10× compound stock solution or 1% DMSO was added to the 384-well plate. • 3) The plate was centrifuged at 1000 rpm for 1 minute. • 4) 4 μL of GST-tagged cRAF solution was added to the 384-well plate. • 5) The plate was centrifuged at 1000 rpm for 1 minute. • 6) The plate was incubated at room temperature for 15 minutes. • 7) 10 μL of detection working solution was added to the 384-well plate. • 8) The plate was centrifuged at 1000 rpm for 1 minute. • 9) The plate was incubated at room temperature for 60 minutes. • 10) The 384-well plate was placed into Envision and assay data was obtained.
The ratio for each compound concentration was calculated from the signal of the DMSO control group contained in each assay plate and the Alphalisa signal in each compound well. The compound concentration required for inhibitory concentration at 50% (IC50) was determined using a four-parameter logarithmic dose-response equation by testing the concentration of the compound and the value of the ratio. The endpoint value (IC50) of the reference compound was assessed in each experiment as a quality control measure. If the endpoint value is within three times the expected value, the experiment may be considered acceptable.

[1] = AGS cells, incubated 3 days, CTG, class symbols, read-out: AGS cell IC50

SMILES: C#Cc1c(F)ccc2cc(O)cc(-c3ncc4c(N5CC6CCC(COC)(C5)N6)nc(OC[C@@]56CCCN5C[C@H](F)C6)nc4c3F)c12 (stereo partly drawn) [Example 1, 5-ethynyl-6-fluoro-4-(8-fluoro-2-(((2R,7aS)-2-fluorotetrahydro-1H-pyrrolizin-7a-yl)methoxy)-4-(1-(methoxymethyl)-3,8-diazabicyclo[3.2.1]octan-3-yl)pyrido[4,3-d]pyrimidin-7-yl)naphthalen-2-ol]
IC50 (AGS cell; AGS, read-out: AGS cell IC50 (nM)): 20 nM
IC50 (KRAS^G12D/cRAF; numeric values): 100 nM

SMILES: [2H]C12CCC(COC([2H])([2H])[2H])(CN(c3nc(OC[C@@]45CCCN4C[C@H](F)C5)nc4c(F)c(-c5cc(O)cc6ccc(F)c(C#C)c56)ncc34)C1)N2 (stereo partly drawn) [Example 3, 5-ethynyl-6-fluoro-4-(8-fluoro-2-(((2R,7aS)-2-fluorotetrahydro-1H-pyrrolizin-7a(5H)-yl)methoxy)-4-(1-((methoxy-d3)methyl)-3,8-diazabicyclo [3.2.1]octan-3-yl-5-d)pyrido [4,3-d]pyrimidin-7-yl)naphthalen-2-ol]
IC50 (AGS cell; [1]): < 50 nM

SMILES: C#Cc1c(F)ccc2cc(O)cc(-c3ncc4c(N5CC6CCC(COC(F)F)(C5)N6)nc(OC[C@@]56CCCN5C[C@H](F)C6)nc4c3F)c12 (stereo partly drawn) [Example 4, 4-(4-(1-((difluoromethoxy)methyl)-3,8-diazabicyclo[3.2.1]octan-3-yl)-8-fluoro-2-(((2R,7aS)-2-fluorotetrahydro-1H-pyrrolizin-7a(5H)-yl)methoxy)pyrido[4,3-d]pyrimidin-7-yl)-5-ethynyl-6-fluoronaphthalen-2-ol]
IC50 (AGS cell; [1]): 50 to 500 nM
IC50 (KRAS^G12D/cRAF; class symbols): 50 to 500 nM

SMILES: C#Cc1c(F)ccc2cc(O)cc(-c3ncc4c(N5CC6CCC(C#C)(C5)N6)nc(OC[C@@]56CCCN5C[C@H](F)C6)nc4c3F)c12 (stereo partly drawn) [Example 6, 5-ethynyl-4-(4-(1-ethynyl-3,8-diazabicyclo[3.2.1]octan-3-yl)-8-fluoro-2-(((2R,7aS)-2-fluorotetrahydro-1H-pyrrolizin-7a(5H)-yl)methoxy)pyrido[4,3-d]pyrimidin-7-yl)-6-fluoronaphthalen-2-ol]
IC50 (AGS cell; [1]): < 50 nM
IC50 (KRAS^G12D/cRAF; class symbols): 50 to 500 nM

SMILES: [2H]C([2H])([2H])C12CCC(CN(c3nc(OC[C@@]45CCCN4C[C@H](F)C5)nc4c(F)c(-c5cc(O)cc6ccc(F)c(C#C)c56)ncc34)C1)N2 (stereo partly drawn) [Example 7, 5-ethynyl-6-fluoro-4-(8-fluoro-2-(((2R,7aS)-2-fluorotetrahydro-1H-pyrrolizin-7a(5H)-yl)methoxy)-4-(1-(methyl-d3)-3,8-diazabicyclo[3.2.1]octan-3-yl)pyrido [4,3-d]pyrimidin-7-yl) naphthalen-2-ol]
IC50 (AGS cell; AGS cells, incubated 3 days, CTG, numeric values, read-out: AGS cell IC50): 28 nM
IC50 (KRAS^G12D/cRAF; numeric values): 4.3 nM

SMILES: C#Cc1c(F)ccc2cc(O)cc(-c3ncc4c(N5CC6CCC(CCF)(C5)N6)nc(OC[C@@]56CCCN5C[C@H](F)C6)nc4c3F)c12 (stereo partly drawn) [Example 8, 5-ethynyl-6-fluoro-4-(8-fluoro-4-(1-(2-fluoroethyl)-3,8-diazabicyclo[3.2.1]octan-3-yl)-2-(((2R,7aS)-2-fluorotetrahydro-1H-pyrrolizin-7a(5H)-yl)methoxy)pyrido[4,3-d]pyrimidin-7-yl) naphthalen-2-ol]
IC50 (AGS cell; [1]): < 50 nM
IC50 (KRAS^G12D/cRAF; class symbols): < 50 nM

SMILES: C#Cc1c(F)ccc2cc(O)cc(-c3ncc4c(N5CC6CCC(CCOC)(C5)N6)nc(OC[C@@]56CCCN5C[C@H](F)C6)nc4c3F)c12 (stereo partly drawn) [Example 9, 5-ethynyl-6-fluoro-4-(8-fluoro-2-(((2R,7aS)-2-fluorotetrahydro-1H-pyrrolizin-7a(5H)-yl)methoxy)-4-(1-(2-methoxyethyl)-3,8-diazabicyclo[3.2.1]octan-3-yl)pyrido[4,3-d]pyrimidin-7-yl) naphthalen-2-ol]
IC50 (AGS cell; [1]): 50 to 500 nM
IC50 (KRAS^G12D/cRAF; class symbols): 50 to 500 nM

SMILES: C#Cc1c(F)ccc2cc(O)cc(-c3ncc4c(N5CC6CCC(CSC)(C5)N6)nc(OC[C@@]56CCCN5C[C@H](F)C6)nc4c3F)c12 (stereo partly drawn) [Example 10, 5-ethynyl-6-fluoro-4-(8-fluoro-2-(((2R,7aS)-2-fluorotetrahydro-1H-pyrrolizin-7a(5H)-yl)methoxy)-4-(1-((methylthio)methyl)-3,8-diazabicyclo [3.2.1]octan-3-yl)pyrido[4,3-d]pyrimidin-7-yl)naphthalen-2-ol]
IC50 (AGS cell; [1]): 50 to 500 nM
IC50 (KRAS^G12D/cRAF; class symbols): > 500 nM

SMILES: C#Cc1c(F)ccc2cc(O)cc(-c3ncc4c(N5CC6CCC(CS(C)(=O)=O)(C5)N6)nc(OC[C@@]56CCCN5C[C@H](F)C6)nc4c3F)c12 (stereo partly drawn) [Example 11, 5-ethynyl-6-fluoro-4-(8-fluoro-2-(((2R,7aS)-2-fluorotetrahydro-1H-pyrrolizin-7a(5H)-yl)methoxy)-4-(1-((methanesulfonyl)methyl)-3,8-diazabicyclo[3.2.1]octan-3-yl)pyrido[4,3-d]pyrimidin-7-yl)naphthalen-2-ol]
IC50 (AGS cell; [1]): > 500 nM
IC50 (KRAS^G12D/cRAF; class symbols): > 500 nM

SMILES: C#Cc1c(F)ccc2cc(O)cc(-c3ncc4c(N5CC6CCC(C(C)O)(C5)N6)nc(OC[C@@]56CCCN5C[C@H](F)C6)nc4c3F)c12 (stereo partly drawn) [Example 13, 5-ethynyl-6-fluoro-4-(8-fluoro-2-(((2R,7aS)-2-fluorotetrahydro-1H-pyrrolizin-7a(5H)-yl)methoxy)-4-(1-(1-hydroxyethyl)-3,8-diazabicyclo[3.2.1]octan-3-yl)pyrido[4,3-d]pyrimidin-7-yl) naphthalen-2-ol]
IC50 (AGS cell; [1]): 50 to 500 nM

SMILES: [2H]C([2H])([2H])OCC12CCC(CN(c3nc(OC[C@@]45CCCN4C[C@H](F)C5)nc4c(F)c(-c5cc(O)cc6cc(F)c(F)c(C#C)c56)ncc34)C1)N2 (stereo partly drawn) [Example 15, 5-ethynyl-6,7-difluoro-4-(8-fluoro-2-(((2R,7aS)-2-fluorotetrahydro-1H-pyrrolizin-7a(5H)-yl)methoxy)-4-(1-((methoxy-d3)methyl)-3,8-diazabicyclo[3.2.1]octan-3-yl)pyrido[4,3-d]pyrimidin-7-yl)naphthalen-2-ol]
IC50 (AGS cell; [1]): 50 to 500 nM
IC50 (KRAS^G12D/cRAF; class symbols): 50 to 500 nM

SMILES: [2H]C([2H])([2H])OCC12CCC(CN(c3nc(OC[C@@]45CCCN4C[C@H](F)C5)nc4c(F)c(-c5cc(O)cc6cc(Cl)c(F)c(C#C)c56)ncc34)C1)N2 (stereo partly drawn) [Example 16, 7-chloro-5-ethynyl-6-fluoro-4-(8-fluoro-2-(((2R,7aS)-2-fluorotetrahydro-1H-pyrrolizin-7a(5H)-yl)methoxy)-4-(1-((methoxy-d3)methyl)-3,8-diazabicyclo [3.2.1]octan-3-yl)pyrido[4,3-d]pyrimidin-7-yl)naphthalen-2-ol]
IC50 (AGS cell; [1]): 50 to 500 nM
IC50 (KRAS^G12D/cRAF; class symbols): > 500 nM

SMILES: [2H]C([2H])([2H])OCC12CCC(CN(c3nc(OC[C@@]45CCCN4C[C@H](F)C5)nc4c(F)c(-c5cc(O)cc6cc(C)c(F)c(C#C)c56)ncc34)C1)N2 (stereo partly drawn) [Example 17, 5-ethynyl-6-fluoro-4-(8-fluoro-2-(((2R,7aS)-2-fluorotetrahydro-1H-pyrrolizin-7a(5H)-yl)methoxy)-4-(1-((methoxy-d3)methyl)-3,8-diazabicyclo[3.2.1]octan-3-yl)pyrido[4,3-d]pyrimidin-7-yl)-7-methylnaphthalen-2-ol]
IC50 (AGS cell; [1]): > 500 nM

IC50 (KRAS^G12D/cRAF; class symbols): > 500 nM
SMILES: C#Cc1c(F)ccc2cc(O)cc(-c3ncc4c(N5C[C@H]6CC[C@@](COC)(C5)N6)nc(OC[C@@]56CCCN5C[C@H](F)C6)nc4c3F)c12 [Example 45, 5-ethynyl-6-fluoro-4-(8-fluoro-2-(((2R,7aS)-2-fluorotetrahydro-1H-pyrrolizin-7a(5H)-yl)methoxy)-4-((1S,5R)-1-(methoxymethyl)-3,8-diazabicyclo[3.2.1]octan-3-yl)pyrido[4,3-d]pyrimidin-7-yl)naphthalen-2-ol]

SMILES: C#Cc1c(F)ccc2cc(O)cc(-c3ncc4c(N5C[C@@H]6CC[C@](CCF)(C5)N6)nc(OC[C@@]56CCCN5C[C@H](F)C6)nc4c3F)c12 [Example 56, 5-ethynyl-6-fluoro-4-(8-fluoro-4-((1S,5S)-1-(2-fluoroethyl)-3,8-diazabicyclo[3.2.1]octan-3-yl)-2-(((2R,7aS)-2-fluorotetrahydro-1H-pyrrolizin-7a(5H)-yl)methoxy)pyrido[4,3-d]pyrimidin-7-yl)naphthalen-2-ol]
IC50 (AGS cell; [1]): < 50 nM
